Measured values: ChEMBL document CHEMBL3400111, “Synthesis and melanogenesis evaluation of 3',4',7-trihydroxyflavanone derivatives and characterization of flavanone-BODIPY” (Bioorg Med Chem Lett, 2015)
The source made the active and inactive calls. The calls are words filed in the database; no cut-off is given here.

Assays:
B16-F10 [1] = test: Induction of melanin synthesis in mouse B16F10 cells after 48 hrs by fluorescence microscopy relative to control; type: functional; set-up: concentration or dose not given beside the values
B16-F10 [2] = test: Induction of melanogenesis in mouse B16F10 cells at 0.01 to 10 uM after 48 hrs by fluorescence microscopy relative to control; type: functional, cell-based
[3] = Cellular uptake in mouse B16F10 cells at 0.1 uM after 4 hrs by confocal imaging analysis in presence of 0.1 to 1 uM 3',4',7-trihydroxyflavaonone; type: ADME, cell-based; settings: b16-f10, 4 h
[4] = Drug uptake in mouse B16F10 cell endoplasmic reticulum at 0.1 uM after 4 hrs by ER-tracker Red staining-based confocal imaging analysis; type: ADME; settings: b16-f10, 4 h
[5] = Drug uptake in mouse B16F10 cell nucleus at 0.1 uM after 4 hrs by DAPI staining-based confocal imaging analysis; type: ADME; settings: b16-f10, 4 h
Mus musculus [6] = test: Induction of melanogenesis in C57BL/6 depigmentation mouse assessed as increase in TRP-1 protein expression at 1.6 to 4.8 mg/kg, ip for 2 weeks measured on day 12 by H&E staining-based histomorphology; type: functional, organism-based
Mus musculus [7] = test: Induction of melanogenesis in C57BL/6 depigmentation mouse assessed as increase in MITF protein expression at 1.6 to 4.8 mg/kg, ip for 2 weeks measured on day 12 by H&E staining-based histomorphology; type: functional, organism-based
Mus musculus [8] = test: Induction of melanogenesis in C57BL/6 depigmentation mouse assessed as increase in tyrosinase protein expression at 1.6 to 4.8 mg/kg, ip for 2 weeks measured on day 12 by H&E staining-based histomorphology; type: functional, organism-based
Mus musculus [9] = test: Induction of melanogenesis in C57BL/6 depigmentation mouse assessed as increase in melanin content of hair follicle on depigmented skin at 1.6 to 4.8 mg/kg, ip for 2 weeks by H&E stainig-based histomorphology; type: functional, organism-based
Mus musculus [10] = test: Induction of melanogenesis in C57BL/6 depigmentation mouse assessed as increase in TRP-2 protein expression at 1.6 to 4.8 mg/kg, ip for 2 weeks measured on day 12 by H&E staining-based histomorphology; type: functional, organism-based

| Structure (SMILES) | Activity (B16-F10 [1]) [%] | also measured |
| --- | --- | --- |
| COc1ccc2c(c1)OC(c1ccc(OC(=O)c3ccc(Cl)cc3)c(OC(=O)c3ccc(Cl)cc3)c1)CC2=O (centres undefined) | 121.98 |  |
| COc1ccc2c(c1)OC(c1ccc(O)c(O)c1)CC2=O (centres undefined) | 110.31 |  |
| COc1ccc2c(c1)OC(c1ccc(OC(=O)c3ccccc3Cl)c(OC(=O)c3ccccc3Cl)c1)CC2=O (centres undefined) | 119.46 |  |
| C=CCOc1ccc(C2CC(=O)c3ccc(OC)cc3O2)cc1OCC=C (centres undefined) | 91.19 |  |
| CC1=CC(C)=[N+]2C1=C(CCC(=O)N/N=C1\CC(c3ccc(O)c(O)c3)Oc3cc(O)ccc31)c1c(C)cc(C)n1[B-]2(F)F (centres undefined) |  | Activity (B16-F10 [2]): Active; Drug uptake [3]: Not Active; Drug uptake [4]: Active; Drug uptake [5]: Active |
| COc1ccc2c(c1)OC(c1ccc(OC(=O)c3ccco3)c(OC(=O)c3ccco3)c1)CC2=O (centres undefined) | 96.11 |  |
| COc1ccc2c(c1)OC(c1ccc(OC(=O)c3ccc(F)cc3)c(OC(=O)c3ccc(F)cc3)c1)CC2=O (centres undefined) | 111.79 |  |
| COc1ccc2c(c1)OC(c1ccc(OC(=O)c3ccc(C)cc3)c(OC(=O)c3ccc(C)cc3)c1)CC2=O (centres undefined) | 113.49 |  |
| COc1ccc2c(c1)OC(c1ccc(O)c(O)c1)C/C2=N/O (centres undefined) | 134.71 | Activity (Mus musculus [6]): Active; Activity (Mus musculus [7]): Active; Activity (Mus musculus [8]): Active; Activity (Mus musculus [9]): Active; Activity (Mus musculus [10]): Active |
| CCC(=O)Oc1ccc(C2CC(=O)c3ccc(OC)cc3O2)cc1OC(=O)CC (centres undefined) | 133.65 |  |
| CCCCCCCCCCCC(=O)Oc1ccc(C2CC(=O)c3ccc(OC)cc3O2)cc1O (centres undefined) | 74.13 |  |
| COc1ccc2c(c1)OC(c1ccc(OS(=O)(=O)c3ccc(C)cc3)c(OS(=O)(=O)c3ccc(C)cc3)c1)CC2=O (centres undefined) | 100.52 |  |
| CCCCCCCCCCCCCC(=O)Oc1ccc(C2CC(=O)c3ccc(OC)cc3O2)cc1O (centres undefined) | 44.63 |  |
| CCCCCCCCCCCC(=O)Oc1ccc(C2CC(=O)c3ccc(OC)cc3O2)cc1OC(=O)CCCCCCCCCCC (centres undefined) | 89.54 |  |
| COc1ccc2c(c1)OC(c1ccc(OC(=O)c3ccccc3)c(OC(=O)c3ccccc3)c1)CC2=O (centres undefined) | 121.43 |  |
| COc1ccc2c(c1)OC(c1ccc(OC(C)=O)c(OC(C)=O)c1)CC2=O (centres undefined) | 132.3 |  |
